# Measured values as given in US6759403B2, “Metalloporphyrins and their uses as radiosensitizers for radiation therapy” (Brookhaven Science Associates, LLC, priority 2001, dated 2004).
# Test system: EMT-6 leg tumors
# Assay: Boron biodistribution in mice with subcutaneous EMT-6 leg tumors (Example 3)
# Type: in vivo, BALB/c mice
# Details: for Boron Concentration, Blood / Boron Concentration, Liver / Boron concentration, Cerebrum / Boron concentration, Ears / Boron Concentration, Tumor: 156 μg CuTCPBr/gbw over 2 days; for Boron Concentration, Tumor / Tumor boron concentration normalized to the dose of the first study: leg tumor; for Tumor boron concentration normalized to the dose of the first study: normalized from 156 to 186 μg/g dose
# Procedure: In this example, BALB/c mice bearing subcutaneous EMT-6 leg tumors were given 156 μg CuTCPBr/gbw in a volume of 0.01 mL/gbw/injection over a period of 2 days.
# There is a larger vascular system surrounding the dorsal thorax compared with the leg, which may be a factor. However, in the case of CuTCPH, the boron concentration was 30% higher in leg tumors compared to back tumors. Normalizing to the slightly higher dose of the first study, the tumor boron concentration should be about 29 and 15 μg/g at 2d and 5d, respectively, which are still low. Studies are underway to repeat these experiments.
substance,measurement,setting,value
copper octabromotetracarboranylphenylporphyrin [CuTCPBr],"Boron Concentration, Blood",2 days after last injection,0.2 ± 0.1 µg/g
same,"Boron Concentration, Liver",2 days after last injection,271 ± 40 µg/g
same,"Boron concentration, Cerebrum",2 days after last injection,0 ± 0.1 µg/g
same,"Boron concentration, Ears",2 days after last injection,1 ± 1 µg/g
same,"Boron Concentration, Tumor",2 days after last injection,24 ± 11 µg/g
same,"Boron Concentration, Blood",5 days after last injection,0.1 ± 0.1 µg/g
same,"Boron Concentration, Liver",5 days after last injection,308 ± 40 µg/g
same,"Boron concentration, Cerebrum",5 days after last injection,0.6 ± 1 µg/g
same,"Boron concentration, Ears",5 days after last injection,0.6 ± 0.7 µg/g
same,"Boron Concentration, Tumor",5 days after last injection,13 ± 6 µg/g
same,Tumor boron concentration normalized to the dose of the first study,2d,about 29 μg/g
same,Tumor boron concentration normalized to the dose of the first study,5d,~15 µg/g
